Experiments:
[1] = in vivo; cited from earlier work
[2] = tested on: cognitively-normal wildtype rodents; details: cited from earlier work
euploid and Ts65Dn mice = experiment: Pro-convulsant effects after pentylenetetrazol (45 mg/kg); assay type: in vivo; details: sub-convulsant dose 45 mg/kg i.p.
Procedure: For testing the pro-convulsant effects of α5IA, a sub-convulsant dose of pentylenetetrazole (45 mg/kg i.p.) that induces myoclonic convulsions in about 50% of mice was injected i.p. 20 min after injection of α5IA (50 mg/kg) or placebo.
The proconvulsant action of the α5IA was measured after injection of a subconvulsive dose of pentylenetetrazole. Mice were injected with either vehicle or the α5IA (50 mg/kg i.p) and 20 min later they received an intraperitoneal injection of 45 mg/kg of pentylenetetrazole. […] Six to 7 mice were used for each condition. The latency to the first myoclonic jerk episode and the convulsion grade were recorded during a 1200-s period of observation. Four grades were empirically determined: Grade 0: no effect; grade 1: tail up and curved; grade 2: reversed tail and convulsive shivers; grade 3: myoclonic convulsions.
We then tested the proconvulsant effect of α5IA by injecting it (50 mg/kg) 20 min before a sub-convulsant dose of pentylenetetrazol (45 mg/kg) that induces myoclonic convulsions in about 50% of mice.

Ts65Dn mice = details: mouse, in vivo; cited from earlier work
[3] = tested on: children with Down syndrome; details: 7 to 13 year-old children with Down syndrome; even at doses associated with adverse effects; cited from earlier work

In the case of `COC(=O)c1cc2c(cn1)[nH]c1ccccc12` [β-CCM], the convulsant liability [1] is given as “proconvulsant or convulsant” and the “spatial learning in the Morris watermaze” value [1] is given as “enhanced spatial learning”.
For `CCOC(=O)c1ncn2c1[C@@H]1CCCN1C(=O)c1cc(OC)ccc1-2` [L-655,708], the “acquisition in the reference memory water maze test” value [2] is listed as “can facilitate acquisition”.
For `C1CCc2nnnn2CC1` [pentylenetetrazole], the “mice with myoclonic convulsions” value (euploid and Ts65Dn mice) is given as “about 50 % of mice”, the “acquisition in the reference memory water maze test” value [2] is given as “can facilitate acquisition” and the “cognition enhancement effect in treated mice compared to control non-treated mice” value (Ts65Dn mice) is given as “did not show a cognition enhancement effect”.
For `NC(=O)CN1CCCC1=O` [piracetam], the “cognitive and behavioural measures” value [3] is listed as “neither cognitive nor behavioural measures demonstrated improvement”.
